Assay results published in article PMC5877439 (British Journal of Cancer, 2018).

Legend:
[1] = Safety, tolerability, DLT and MTD; type: in vivo, human
Notch signalling = assay: Notch signature score in plucked hair follicles; type: in vivo, human; conditions: number of samples limited
[2] = Tumour MK-0752 concentration in biopsies; type: in vivo, human; conditions: between the 1500 and 2100 mg doses; data limited
[3] = Plasma MK-0752 PK analysis; type: in vivo, human
[4] = ref Krop et al, 2012, cited from earlier work

Nc1ccn([C@@H]2O[C@H](CO)[C@@H](O)C2(F)F)c(=O)n1 [gemcitabine, 2′,2′,-difluoro-2′,-deoxycytidine, reference compound]
MTD / RP2D of gemcitabine in combination with MK-0752 ([1]; i.v. days 1, 8 and 15 of 28 day cycle, with MK-0752 1800 mg): 1000 mg m^-2

O=C(O)CC[C@H]1CC[C@@](c2cc(F)ccc2F)(S(=O)(=O)c2ccc(Cl)cc2)CC1 [MK-0752]
Relationship between MK-0752 dose and fold-change in Notch score (Notch signalling): no relationship | Tumour MK-0752 concentration across doses [2]: no increment | MK-0752 plasma exposure across the dose groups ([3]; 1200-2400 mg once weekly): no increment in exposure beyond the RP2D single-agent dose (1800 mg weekly) | Plasma MK-0752 exposure (AUC0-t) and Cmax, effect of gemcitabine ([3]; day 1 (MK-0752+gemcitabine) vs day -7 (MK-0752 alone), 40 patients): did not appear to be affected by the addition of gemcitabine | MTD / RP2D of MK-0752 in combination with gemcitabine ([1]; p.o. once weekly, with gemcitabine 1000 mg m^-2): 1800 mg | Drug exposure with dose, single agent ([4]; phase I studies of MK-0752 alone): no significant increase in drug exposure between 1800 mg and 3200 mg | Recommended dose for phase II evaluation (RP2D), single agent ([4]; single-agent studies): 1800 mg | Maximum tolerated dose (MTD), single agent ([4]; weekly schedule, MK-0752 alone): 3200 mg
